≈ marks a conversion by molar mass, not a printed value.
Columns and labels:
N. gonorrhoeae WHO Z = assay: Liquid broth MIC in Fastidious broth; conditions: Neisseria gonorrhoeae, read-out: Minimum Inhibitory Concentration (MIC), N. gonorrhoeae WHO Z
Method: Additional antibacterial testing of the series was performed in 8 reference strains of N. gonorrhoeae (ATCC 49226, FA1090, MS 11, WHO G, WHO L, WHO M, WHO K, WHO X, WHO Z, WHO Q, CDC-0197). ATCC 49226, FA1090, MS11, WHO G, WHO L, and WHO M produce wild type or wild-type like PBP2. WHO K, WHO X, WHO Z, WHO Q, and CDC-0197 produce mosaic PBP2. Liquid broth-based assays were used for antibacterial testing of PBP inhibitors in Neisseria gonorrhoeae. Briefly, cryo-preserved bacterial cultures of clinical strains were streaked for isolation on Chocolate Agar (72 g/L (2×) GC Agar Base (BD #228950) and 2% (2×) Hemoglobin was autoclaved at 121° C. for 20 minutes to sterilize. Once cooled to ˜50° C. the 2×GC Agar Base and 2× Hemoglobin solutions are combined and 1% IsoVitaleX Enrichment (BD #211876) was added to the solution). Strains were incubated at 36° C. and 5% CO2 to allow growth of colonies, 24 hours before inoculum preparation. 2-fold serial dilutions of test compounds were conducted in a 96 well plate with a final volume of 75 μL per well at 2-fold the final desired concentration in Fastidious broth (Remel #R07664). For preparation of assay inoculum, a direct suspension was prepared by aseptically swabbing 10-15 colonies from agar plates into culture tubes containing 2 mL of fresh sterile saline. After the dilution plates were set up, direct suspensions were then diluted in a cuvette containing sterile saline and the optical density was measured at 600 nm. Inocula were diluted such that 75 μL of this culture in Fastidious broth results in a starting bacterial concentration of 5×10^5 CFU/mL when added to the dilution plates. The plates were incubated for ˜24 hours at 36° C. and 5% CO2.

N. gonorrhoeae CDC-0197 = assay: Liquid broth MIC in Fastidious broth; conditions: Neisseria gonorrhoeae, CDC0197, read-out: Minimum Inhibitory Concentration (MIC), N. gonorrhoeae CDC-0197
[1] = biological target: T1, PBP2 from Neisseria gonorrhoeae (FA19) (Neisseria gonorrhoeae, UniProt P08149); assay: Bocillin-FL fluorescence polarization competition binding, N. gonorrhoeae PBP2; conditions: fluorescence polarization competition binding assay using Bocillin-FL, read-out: N. gonorrhoeae PBP2 Potency
T1 construct: made in house
How it was run: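 Fluorescence polarization competition with 0.1 μM Bocillin-FL (fluorescent penicillin V) against 0.25 μM N. gonorrhoeae FA19 PBP2 in 50 mM Hepes pH 8.0, 300 mM NaCl, 10% glycerol. Boronic acid inhibitors were preincubated with PBP, then Bocillin-FL was added and FP read (490/520 nm) up to 60 min. EC50 is the concentration halving PBP-bound Bocillin-FL.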

N. gonorrhoeae WHO Q = assay: Liquid broth MIC in Fastidious broth; conditions: Neisseria gonorrhoeae, read-out: Minimum Inhibitory Concentration (MIC), N. gonorrhoeae WHO Q
N. gonorrhoeae FA1090 = assay: Liquid broth MIC in Fastidious broth; conditions: Neisseria gonorrhoeae, FA1090, read-out: Minimum Inhibitory Concentration (MIC), N. gonorrhoeae FA 1090
A. baumannii ATCC 19606 = assay: microbe, parasite or virus in culture; format: cell-based; conditions: Acinetobacter baumannii, ATCC19606, read-out: MIC, A. baumannii ATCC 19606
N. gonorrhoeae WHO K = assay: Liquid broth MIC in Fastidious broth; conditions: Neisseria gonorrhoeae, read-out: Minimum Inhibitory Concentration (MIC), N. gonorrhoeae WHO K
P. aeruginosa ATCC 27853 = assay: microbe, parasite or virus in culture; format: cell-based; conditions: Pseudomonas aeruginosa, ATCC27853, read-out: MIC P. aeruginosa ATCC 27853

T1 sequence (P08149 whole entry): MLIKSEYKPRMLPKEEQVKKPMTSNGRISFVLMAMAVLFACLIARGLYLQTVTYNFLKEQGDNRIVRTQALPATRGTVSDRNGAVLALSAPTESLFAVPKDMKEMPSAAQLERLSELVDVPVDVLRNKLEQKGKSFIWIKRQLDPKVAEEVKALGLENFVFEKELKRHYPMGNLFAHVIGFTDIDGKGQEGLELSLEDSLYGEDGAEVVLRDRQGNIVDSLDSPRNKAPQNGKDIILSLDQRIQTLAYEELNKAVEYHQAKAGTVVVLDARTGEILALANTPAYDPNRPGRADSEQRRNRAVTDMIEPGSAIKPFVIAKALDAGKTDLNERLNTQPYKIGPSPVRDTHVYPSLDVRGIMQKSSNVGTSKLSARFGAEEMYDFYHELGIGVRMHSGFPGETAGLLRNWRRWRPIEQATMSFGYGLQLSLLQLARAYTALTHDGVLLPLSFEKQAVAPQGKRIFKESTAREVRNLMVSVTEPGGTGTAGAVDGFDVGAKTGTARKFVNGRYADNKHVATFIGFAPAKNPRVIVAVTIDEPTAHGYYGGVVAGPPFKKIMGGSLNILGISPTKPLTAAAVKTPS

**Q.** `N#Cc1cccc(C(=O)N[C@@H](C(=O)N[C@H]2Cc3cccc(C(=O)O)c3OB2O)c2ccc(P(=O)(O)O)cc2)n1` [Example 180, (R)-3-((R)-2-(6-cyanopicolinamido)-2-(4-phosphonophenyl)acetamido)-2-hydroxy-3,4-dihydro-2H-benzo[e][1,2]oxaborinine-8-carboxylic acid] was tested. Which MIC (N. gonorrhoeae WHO Z) did it give?
**A.** < 1 µg/mL

**Q.** What about the MIC (N. gonorrhoeae CDC-0197) of the same compound?
**A.** < 1 µg/mL

**Q.** And the EC50 [1]?
**A.** < 10 µM

**Q.** And the MIC (N. gonorrhoeae WHO Q)?
**A.** 1 to 2 µg/mL (≈ 1.82 to 3.63 µM)

**Q.** What about the MIC (N. gonorrhoeae FA1090) of the same compound?
**A.** < 1 µg/mL

**Q.** What about the MIC (A. baumannii ATCC 19606) of the same compound?
**A.** > 128 µg/mL

**Q.** And the MIC (N. gonorrhoeae WHO K)?
**A.** 1 to 2 µg/mL (≈ 1.82 to 3.63 µM)

**Q.** What about the MIC (P. aeruginosa ATCC 27853) of the same compound?
**A.** > 128 µg/mL

**Q.** `CC(C)(C)C(=O)NC(C(=O)N[C@H]1Cc2cccc(C(=O)O)c2OB1O)c1ccc(P(=O)(O)O)cc1` (stereo partly drawn) [Example 29, (3R)-2-hydroxy-3-(2-(4-phosphonophenyl)-2-pivalamidoacetamido)-3,4-dihydro-2H-benzo[e][1,2]oxaborinine-8-carboxylic acid] was tested. Which MIC (N. gonorrhoeae WHO Z) did it give?
**A.** 16 to 32 µg/mL (≈ 31.7 to 63.5 µM)

**Q.** And the MIC (N. gonorrhoeae CDC-0197)?
**A.** 16 to 32 µg/mL (≈ 31.7 to 63.5 µM)

**Q.** And the EC50 [1]?
**A.** < 10 µM

**Q.** What about the MIC (N. gonorrhoeae WHO Q) of the same compound?
**A.** 16 to 32 µg/mL (≈ 31.7 to 63.5 µM)

**Q.** What about the MIC (N. gonorrhoeae FA1090) of the same compound?
**A.** 4 to 8 µg/mL (≈ 7.93 to 15.9 µM)

**Q.** And the MIC (A. baumannii ATCC 19606)?
**A.** 32 to 64 µg/mL (≈ 63.5 to 127 µM)

**Q.** And the MIC (N. gonorrhoeae WHO K)?
**A.** 16 to 32 µg/mL (≈ 31.7 to 63.5 µM)

**Q.** What about the MIC (P. aeruginosa ATCC 27853) of the same compound?
**A.** 32 to 64 µg/mL (≈ 63.5 to 127 µM)

**Q.** How did the MIC (N. gonorrhoeae WHO Z) turn out when `O=C(N[C@H](C(=O)N[C@H]1Cc2cccc(C(=O)O)c2OB1O)c1ccc(P(=O)(O)O)cc1)c1ccc(C(F)(F)F)cn1` (single isomer, unassigned) [Example 192] was run?
**A.** 1 to 2 µg/mL (≈ 1.69 to 3.37 µM)

**Q.** And the MIC (N. gonorrhoeae CDC-0197)?
**A.** 1 to 2 µg/mL (≈ 1.69 to 3.37 µM)

**Q.** And the EC50 [1]?
**A.** < 10 µM

**Q.** And the MIC (N. gonorrhoeae WHO Q)?
**A.** 1 to 2 µg/mL (≈ 1.69 to 3.37 µM)

**Q.** And the MIC (N. gonorrhoeae FA1090)?
**A.** < 1 µg/mL

**Q.** And the MIC (A. baumannii ATCC 19606)?
**A.** > 128 µg/mL

**Q.** What about the MIC (N. gonorrhoeae WHO K) of the same compound?
**A.** 4 to 8 µg/mL (≈ 6.74 to 13.5 µM)

**Q.** And the MIC (P. aeruginosa ATCC 27853)?
**A.** > 128 µg/mL

**Q.** `O=C(O)c1cccc2c1OB(O)[C@@H](NC(=O)[C@@H](NC(=O)c1ccn[nH]c1=O)c1ccc(P(=O)(O)O)cc1)C2` (single isomer, unassigned) [Example 177] was tested. Which MIC (N. gonorrhoeae WHO Z) did it give?
**A.** 4 to 8 µg/mL (≈ 7.38 to 14.8 µM)

**Q.** And the MIC (N. gonorrhoeae CDC-0197)?
**A.** 1 to 2 µg/mL (≈ 1.84 to 3.69 µM)

**Q.** What about the EC50 [1] of the same compound?
**A.** < 10 µM

**Q.** And the MIC (N. gonorrhoeae WHO Q)?
**A.** 4 to 8 µg/mL (≈ 7.38 to 14.8 µM)

**Q.** What about the MIC (N. gonorrhoeae FA1090) of the same compound?
**A.** < 1 µg/mL

**Q.** What about the MIC (A. baumannii ATCC 19606) of the same compound?
**A.** > 128 µg/mL

**Q.** And the MIC (N. gonorrhoeae WHO K)?
**A.** 4 to 8 µg/mL (≈ 7.38 to 14.8 µM)

**Q.** What about the MIC (P. aeruginosa ATCC 27853) of the same compound?
**A.** > 128 µg/mL

**Q.** `CCN1CCN(C(=O)N[C@@H](C(=O)N[C@H]2Cc3cccc(C(=O)O)c3OB2O)c2ccc(P(=O)(O)O)c(F)c2)C(=O)C1=O` (single isomer, unassigned) [Example 7] was tested. Which MIC (N. gonorrhoeae WHO Z) did it give?
**A.** < 1 µg/mL

**Q.** What about the MIC (N. gonorrhoeae CDC-0197) of the same compound?
**A.** < 1 µg/mL

**Q.** What about the EC50 [1] of the same compound?
**A.** < 10 µM

**Q.** And the MIC (N. gonorrhoeae WHO Q)?
**A.** < 1 µg/mL

**Q.** What about the MIC (N. gonorrhoeae FA1090) of the same compound?
**A.** < 1 µg/mL

**Q.** What about the MIC (A. baumannii ATCC 19606) of the same compound?
**A.** 8 to 16 µg/mL (≈ 13.2 to 26.4 µM)

**Q.** And the MIC (N. gonorrhoeae WHO K)?
**A.** < 1 µg/mL

**Q.** What about the MIC (P. aeruginosa ATCC 27853) of the same compound?
**A.** 32 to 64 µg/mL (≈ 52.8 to 106 µM)

**Q.** `CCN1CCN(C(=O)NC(C(=O)N[C@H]2Cc3cccc(C(=O)O)c3OB2O)c2cccc(CP(=O)(O)O)c2)C(=O)C1=O` (stereo partly drawn) [Example 22, (3R)-3-(2-(4-ethyl-2,3-dioxopiperazine-1-carboxamido)-2-(3-(phosphonomethyl)phenyl)acetamido)-2-hydroxy-3,4-dihydro-2H-benzo[e][1,2]oxaborinine-8-carboxylic acid] was tested. Which MIC (N. gonorrhoeae WHO Z) did it give?
**A.** 1 to 2 µg/mL (≈ 1.66 to 3.32 µM)

**Q.** And the MIC (N. gonorrhoeae CDC-0197)?
**A.** 1 to 2 µg/mL (≈ 1.66 to 3.32 µM)

**Q.** And the EC50 [1]?
**A.** < 10 µM

**Q.** And the MIC (N. gonorrhoeae WHO Q)?
**A.** 1 to 2 µg/mL (≈ 1.66 to 3.32 µM)

**Q.** And the MIC (N. gonorrhoeae FA1090)?
**A.** < 1 µg/mL

**Q.** And the MIC (A. baumannii ATCC 19606)?
**A.** 32 to 64 µg/mL (≈ 53.1 to 106 µM)

**Q.** And the MIC (N. gonorrhoeae WHO K)?
**A.** 4 to 8 µg/mL (≈ 6.64 to 13.3 µM)

**Q.** What about the MIC (P. aeruginosa ATCC 27853) of the same compound?
**A.** > 128 µg/mL

**Q.** What does the source list for `CS(=O)(=O)N1CCN(C(=O)NC(C(=O)N[C@H]2Cc3cccc(C(=O)O)c3OB2O)c2ccc(P(=O)(O)O)c(F)c2O)C1=O` (stereo partly drawn) [Example 48, (3R)-3-(2-(3-fluoro-2-hydroxy-4-phosphonophenyl)-2-(3-(methylsulfonyl)-2-oxoimidazolidine-1-carboxamido)acetamido)-2-hydroxy-3,4-dihydro-2H-benzo[e][1,2]oxaborinine-8-carboxylic acid]?
**A.** MIC (N. gonorrhoeae WHO Z): 1 to 2 µg/mL (≈ 1.55 to 3.1 µM); MIC (N. gonorrhoeae CDC-0197): 1 to 2 µg/mL (≈ 1.55 to 3.1 µM); EC50 [1]: < 10 µM; MIC (N. gonorrhoeae WHO Q): 1 to 2 µg/mL (≈ 1.55 to 3.1 µM); MIC (N. gonorrhoeae FA1090): < 1 µg/mL; MIC (A. baumannii ATCC 19606): > 128 µg/mL; MIC (N. gonorrhoeae WHO K): 4 to 8 µg/mL (≈ 6.21 to 12.4 µM); MIC (P. aeruginosa ATCC 27853): > 128 µg/mL

**Q.** How did the MIC (N. gonorrhoeae WHO Z) turn out when `CS(=O)(=O)N1CCN(C(=O)N[C@@H](C(=O)N[C@H]2Cc3cccc(C(=O)O)c3OB2O)c2ccc(P(=O)(O)O)c(F)c2)C1=O` (single isomer, unassigned) [Example 15] was run?
**A.** < 1 µg/mL

**Q.** And the MIC (N. gonorrhoeae CDC-0197)?
**A.** < 1 µg/mL

**Q.** What about the EC50 [1] of the same compound?
**A.** < 10 µM

**Q.** What about the MIC (N. gonorrhoeae WHO Q) of the same compound?
**A.** < 1 µg/mL

**Q.** And the MIC (N. gonorrhoeae FA1090)?
**A.** < 1 µg/mL

**Q.** And the MIC (A. baumannii ATCC 19606)?
**A.** 32 to 64 µg/mL (≈ 50.9 to 102 µM)

**Q.** And the MIC (N. gonorrhoeae WHO K)?
**A.** < 1 µg/mL

**Q.** What about the MIC (P. aeruginosa ATCC 27853) of the same compound?
**A.** > 128 µg/mL
